Measured values published in ChEMBL document CHEMBL5150076, “Discovery of Novel Orally Bioavailable Triazoles with Potent and Broad-Spectrum Antifungal Activity In Vitro and In Vivo” (J Med Chem, 2022).
≈ marks a conversion by molar mass, not a printed value. Blank lines part the entries; values can stand above or below the compound they belong to.

Legend:
Cryptococcus neoformans [1] = experiment: Antifungal activity against Cryptococcus neoformans H99 incubated for 72 hrs by microbroth dilution method; format: functional
Candida albicans [2] = experiment: Antifungal activity against Candida albicans SC5314 incubated for 24 hrs by microbroth dilution method; format: functional
Aspergillus fumigatus = experiment: Antifungal activity against Aspergillus fumigatus 7544 incubated for 48 hrs by microbroth dilution method; format: functional
Candida albicans [3] = experiment: Antifungal activity against Candida albicans Y0109; format: functional
Candida parapsilosis [4] = experiment: Antifungal activity against Candida parapsilosis 22019; format: functional; conditions: Lodderomyces parapsilosis
Cryptococcus neoformans [5] = experiment: Antifungal activity against Cryptococcus neoformans 32605; format: functional
Nakaseomyces glabratus [6] = experiment: Antifungal activity against Candida glabrata 537; format: functional
Trichophyton rubrum = experiment: Antifungal activity against Trichophyton rubrum cmccftla; format: functional
Nannizzia gypsea = experiment: Antifungal activity against Microsporum gypseum; format: functional
Candida albicans [7] = experiment: Antifungal activity against Candida albicans 12#; format: functional
Candida albicans [8] = experiment: Antifungal activity against Candida albicans 25#; format: functional
Candida albicans [9] = experiment: Antifungal activity against Candida albicans 162; format: functional
Candida albicans [10] = experiment: Antifungal activity against Candida albicans 14#; format: functional
Candida albicans [11] = experiment: Antifungal activity against Candida albicans 305; format: functional
Candida albicans [12] = experiment: Antifungal activity against Candida albicans 20#; format: functional
Candida albicans [13] = experiment: Antifungal activity against Candida albicans 28#; format: functional
Candida parapsilosis [14] = experiment: Antifungal activity against Candida parapsilosis 660; format: functional; conditions: Lodderomyces parapsilosis
Candida parapsilosis [15] = experiment: Antifungal activity against Candida parapsilosis 90018; format: functional; conditions: Lodderomyces parapsilosis
Candida parapsilosis [16] = experiment: Antifungal activity against Candida parapsilosis 700; format: functional; conditions: Lodderomyces parapsilosis
Candida tropicalis [17] = experiment: Antifungal activity against Candida tropicalis 112936; format: functional
Candida tropicalis [18] = experiment: Antifungal activity against Candida tropicalis ATCC750; format: functional
Pichia kudriavzevii [19] = experiment: Antifungal activity against Candida krusei 463; format: functional
Pichia kudriavzevii [20] = experiment: Antifungal activity against Candida krusei 629; format: functional
Pichia kudriavzevii [21] = experiment: Antifungal activity against Candida krusei 397; format: functional
Pichia kudriavzevii [22] = experiment: Antifungal activity against Candida krusei 467; format: functional
Nakaseomyces glabratus [23] = experiment: Antifungal activity against Candida glabrata ATCC2001; format: functional
[Candida] auris [24] = Antifungal activity against Candida auris 791; format: functional; conditions: Candidozyma auris
[Candida] auris [25] = Antifungal activity against Candida auris BS12372; format: functional; conditions: Candidozyma auris
[Candida] auris [26] = Antifungal activity against Candida auris 887; format: functional; conditions: Candidozyma auris
[Candida] auris [27] = Antifungal activity against Candida auris D12; format: functional; conditions: Candidozyma auris
[28] = Cytotoxicity against HUVEC assessed as cell viability at 64 ug/ml incubated for 24 hrs by CCK-8 assay; format: toxicity, cell-based; conditions: human, HUVEC cells, at 64 µg/mL, read-out: Activity
in vitro = conditions: human, Caco-2 cells; at 64 µg/mL

MIC (Cryptococcus neoformans [1]): 0.0625 µg/mL (≈ 0.116 µM) | MIC (Candida albicans [2]): 0.5 µg/mL (≈ 0.931 µM) | MIC (Aspergillus fumigatus): > 64 µg/mL
Structure (SMILES): C[C@@H](c1cn(-c2ccc(OCc3ccc(Cl)cc3)cc2)nn1)[C@](O)(Cn1cncn1)c1ccc(F)cc1F

MIC (Cryptococcus neoformans [1]): 0.125 µg/mL (≈ 0.302 µM) | MIC (Candida albicans [2]): 0.0625 µg/mL (≈ 0.151 µM) | MIC (Aspergillus fumigatus): 16 µg/mL (≈ 38.6 µM)
Structure (SMILES): C[C@@H](c1cn(-c2cccc(F)c2)nn1)[C@](O)(Cn1cncn1)c1ccc(F)cc1F

MIC (Cryptococcus neoformans [1]): 0.0625 µg/mL (≈ 0.139 µM) | MIC (Candida albicans [2]): 0.0313 µg/mL (≈ 0.0697 µM) | MIC (Aspergillus fumigatus): 16 µg/mL (≈ 35.6 µM)
Structure (SMILES): C[C@@H](c1cn(-c2ccc(Cl)c(F)c2)nn1)[C@](O)(Cn1cncn1)c1ccc(F)cc1F

MIC (Cryptococcus neoformans [1]): 0.0625 µg/mL (≈ 0.145 µM) | MIC (Candida albicans [2]): 0.0625 µg/mL (≈ 0.145 µM) | MIC (Aspergillus fumigatus): 2 µg/mL (≈ 4.63 µM) | MIC (Candida albicans [3]): 0.0625 µg/mL (≈ 0.145 µM) | MIC (Candida parapsilosis [4]): 0.0313 µg/mL (≈ 0.0724 µM) | MIC (Cryptococcus neoformans [5]): 0.0313 µg/mL (≈ 0.0724 µM) | MIC (Nakaseomyces glabratus [6]): 0.0313 µg/mL (≈ 0.0724 µM) | MIC (Trichophyton rubrum): 0.125 µg/mL (≈ 0.289 µM) | MIC (Nannizzia gypsea): 2 µg/mL (≈ 4.63 µM)
Structure (SMILES): C[C@@H](c1cn(-c2ccc(F)cc2F)nn1)[C@](O)(Cn1cncn1)c1ccc(F)cc1F

MIC (Cryptococcus neoformans [1]): 4 µg/mL (≈ 10 µM) | MIC (Candida albicans [2]): 0.5 µg/mL (≈ 1.26 µM) | MIC (Aspergillus fumigatus): 64 µg/mL (≈ 161 µM)
Structure (SMILES): C[C@@H](c1cn(-c2cncnc2)nn1)[C@](O)(Cn1cncn1)c1ccc(F)cc1F

MIC (Cryptococcus neoformans [1]): 0.0625 µg/mL (≈ 0.13 µM) | MIC (Candida albicans [2]): 0.0313 µg/mL (≈ 0.0652 µM) | MIC (Aspergillus fumigatus): 4 µg/mL (≈ 8.33 µM) | MIC (Candida albicans [3]): 0.0313 µg/mL (≈ 0.0652 µM) | MIC (Candida parapsilosis [4]): 0.125 µg/mL (≈ 0.26 µM) | MIC (Cryptococcus neoformans [5]): 0.0625 µg/mL (≈ 0.13 µM) | MIC (Nakaseomyces glabratus [6]): 0.125 µg/mL (≈ 0.26 µM) | MIC (Trichophyton rubrum): 0.15 µg/mL (≈ 0.312 µM) | MIC (Nannizzia gypsea): 2 µg/mL (≈ 4.16 µM)
Structure (SMILES): C[C@@H](c1cn(-c2ccc(OC(F)(F)F)cc2)nn1)[C@](O)(Cn1cncn1)c1ccc(F)cc1F

MIC (Cryptococcus neoformans [1]): 0.25 µg/mL (≈ 0.566 µM) | MIC (Aspergillus fumigatus): > 64 µg/mL
Structure (SMILES): C[C@@H](c1cn(-c2ccc([N+](=O)[O-])cc2)nn1)[C@](O)(Cn1cncn1)c1ccc(F)cc1F

Structure (SMILES): CCC(C)n1ncn(-c2ccc(N3CCN(c4ccc(OCC5COC(Cn6cncn6)(c6ccc(Cl)cc6Cl)O5)cc4)CC3)cc2)c1=O (centres undefined) [ITRACONAZOLE]
MIC (Candida albicans [7]): > 64 µg/mL | MIC (Candida albicans [8]): > 64 µg/mL | MIC (Candida albicans [9]): > 64 µg/mL | MIC (Candida albicans [10]): > 64 µg/mL | MIC (Candida albicans [11]): > 16 µg/mL | MIC (Candida albicans [12]): 0.5 µg/mL (≈ 0.709 µM) | MIC (Candida albicans [13]): 0.5 µg/mL (≈ 0.709 µM) | MIC (Candida parapsilosis [14]): 1 µg/mL (≈ 1.42 µM) | MIC (Candida parapsilosis [15]): 0.5 µg/mL (≈ 0.709 µM) | MIC (Candida parapsilosis [16]): 4 µg/mL (≈ 5.67 µM) | MIC (Candida tropicalis [17]): > 16 µg/mL | MIC (Candida tropicalis [18]): > 16 µg/mL | MIC (Pichia kudriavzevii [19]): 1 µg/mL (≈ 1.42 µM) | MIC (Pichia kudriavzevii [20]): 1 µg/mL (≈ 1.42 µM) | MIC (Pichia kudriavzevii [21]): 2 µg/mL (≈ 2.83 µM) | MIC (Pichia kudriavzevii [22]): 2 µg/mL (≈ 2.83 µM) | MIC (Nakaseomyces glabratus [23]): 2 µg/mL (≈ 2.83 µM) | MIC ([Candida] auris [24]): 4 µg/mL (≈ 5.67 µM) | MIC ([Candida] auris [25]): 1 µg/mL (≈ 1.42 µM) | MIC ([Candida] auris [26]): 4 µg/mL (≈ 5.67 µM) | MIC ([Candida] auris [27]): 4 µg/mL (≈ 5.67 µM)

MIC (Cryptococcus neoformans [1]): 0.125 µg/mL (≈ 0.27 µM) | MIC (Candida albicans [2]): 0.0313 µg/mL (≈ 0.0677 µM) | MIC (Aspergillus fumigatus): 8 µg/mL (≈ 17.3 µM)
Structure (SMILES): C[C@@H](c1cn(-c2ccc(OC(F)F)cc2)nn1)[C@](O)(Cn1cncn1)c1ccc(F)cc1F

Structure (SMILES): CC[C@@H]([C@H](C)O)n1ncn(-c2ccc(N3CCN(c4ccc(OC[C@@H]5CO[C@@](Cn6cncn6)(c6ccc(F)cc6F)C5)cc4)CC3)cc2)c1=O [POSACONAZOLE]
MIC (Cryptococcus neoformans [1]): 0.5 µg/mL (≈ 0.713 µM) | MIC (Candida albicans [2]): 0.125 µg/mL (≈ 0.178 µM) | MIC (Aspergillus fumigatus): 0.5 µg/mL (≈ 0.713 µM) | MIC (Candida albicans [7]): > 64 µg/mL | MIC (Candida albicans [8]): > 64 µg/mL | MIC (Candida albicans [9]): > 64 µg/mL | MIC (Candida albicans [10]): > 64 µg/mL | MIC (Candida albicans [11]): > 16 µg/mL | MIC (Candida albicans [12]): 0.5 µg/mL (≈ 0.713 µM) | MIC (Candida albicans [13]): 0.5 µg/mL (≈ 0.713 µM) | MIC (Candida parapsilosis [14]): 0.5 µg/mL (≈ 0.713 µM) | MIC (Candida parapsilosis [15]): 0.5 µg/mL (≈ 0.713 µM) | MIC (Candida parapsilosis [16]): 1 µg/mL (≈ 1.43 µM) | MIC (Candida tropicalis [17]): > 16 µg/mL | MIC (Candida tropicalis [18]): > 16 µg/mL | MIC (Pichia kudriavzevii [19]): 2 µg/mL (≈ 2.85 µM) | MIC (Pichia kudriavzevii [20]): 2 µg/mL (≈ 2.85 µM) | MIC (Pichia kudriavzevii [21]): 2 µg/mL (≈ 2.85 µM) | MIC (Pichia kudriavzevii [22]): 2 µg/mL (≈ 2.85 µM) | MIC (Nakaseomyces glabratus [23]): 2 µg/mL (≈ 2.85 µM) | MIC ([Candida] auris [24]): ≤ 0.125 µg/mL | MIC ([Candida] auris [25]): ≤ 0.125 µg/mL | MIC ([Candida] auris [26]): ≤ 0.125 µg/mL | MIC ([Candida] auris [27]): ≤ 0.125 µg/mL | viability at 24 h, 64 ug/ml [28]: 115% | viability at 24 h, 64 ug/ml (in vitro): 68.3%

MIC (Cryptococcus neoformans [1]): 0.0625 µg/mL (≈ 0.115 µM) | MIC (Aspergillus fumigatus): 8 µg/mL (≈ 14.7 µM)
Structure (SMILES): C[C@@H](c1cn(-c2ccc(OCC(F)(F)C(F)(F)F)cc2)nn1)[C@](O)(Cn1cncn1)c1ccc(F)cc1F
